Here are results for four compounds from US8101411B2, “Method for production of corosolic acid in suspension culture of plant cells” (Samyang Genex Corporation, priority 2005, dated 2012).

Series [1] deals with suspension-cultured cells of Eriobotrya japonica. The experiment in a line: Addition of inducing agent (elicitor) at the production stage of two-stage high cell-density suspension culture. The format is cell-based. Particulars: for Productivity of Corosolic acid / Productivity of Corosolic acid (% DW) / Cell Dry Weight: 14 days. Here is the method:
The cell dry weight was obtained by filtering sampled plant cell culture through Watman no. 4 filter paper using a Buchner funnel, and oven drying at a temperature of 60° C. for 24 hours. […] The % DW (Dry Weight) was calculated from the calculated concentration of corosolic acid. […] The volumetric productivity (mg/L) was calculated by multiplying the calculated % DW content with the cell concentration (g/L, DW) in cell culture. 50 ml of the cell lines which were obtained in EXAMPLE 1-2 were cultured in LS medium with addition of 10 μM of NAA and 1 μM of BA, and collected after 7 days, and 50 ml of 2× concentration of mB5 medium were mixed and cultured in a 250 ml flask. […] The Eriobotrya japonica cells were cultured according to the method of Example 3,except that the concentration of sucrose added to the mB5 medium as the carbon source at the production stage, and the inoculation ratio of Eriobotrya japonica cell were varied as in Table 7. […] In the two-stage culture by using high cell-density culture of Example 4, 6% of sucrose was added to mB5 medium at the production stage, and the inoculated amount was 6 g/L cell dry weight.

Series [2] relates to absorption of glucose into cells. The conditions noted are these: similar to that of insulin; Chem Pharm. Bull. 41(12): 2129-2131, 1993; cited from earlier work.
The conditions of series [3]: cited from earlier work.
Setting [4] is: AgNO3 2 μM, added at 0-day culture.
[5] abbreviates: AgNO3 4 μM, added at 0 day culture.
The mark [6] stands for this setting: AgNO3 6 μM, added at 0-day culture.
Where [7] appears, read: Methyl jasmonate 400 μM, added at 3-day culture.
Where [8] appears, read: Sodium butyrate 1.0 mM, added at 3-day culture.

As to `O=[N+]([O-])[O-].[Ag+]` [AgNO3, silver nitrate], the “maximal concentration of cell increased by” value in series [1] (4 μM added, versus control) was 45%. In series [1] (2-6 μM added to the culture medium, versus control), the “productivity of the suspension-cultured cell” value is reported as “increased the productivity”. The results for the “Productivity of Corosolic acid” value in series [1] (setting [4]), in series [1] (setting [5]) and in series [1] (setting [6]) were 1152.07 mg/L, 1551.78 mg/L and 1335.86 mg/L, respectively. In addition, the “Productivity of Corosolic acid (% DW)” value is on record as 4.42 % DW in series [1] (setting [4]), 6.05 % DW in series [1] (setting [5]) and 5.44 % DW in series [1] (setting [6]). Also, the “Cell Dry Weight” value in series [1] (AgNO3 2 μM, added at 0-day culture, mB5, 6% sucrose, 6 g/L inoculum) came out at 26.05 g/L; in series [1] (setting [5]) it was 25.66 g/L; in series [1] (setting [6]), 24.57 g/L.
For the compound `CC/C=C\CC1C(=O)CCC1CC(=O)OC` (stereo not shown) [Methyl jasmonate], the “amount of corosolic acid increased by” value in series [1] (400 μM methyl jasmonate, versus control) is reported as 100%. In addition, in series [1] (setting [7]), the “Cell Dry Weight” value stood at 22.72 g/L, the “Productivity of Corosolic acid” value was 1913.16 mg/L and the “Productivity of Corosolic acid (% DW)” value is listed as 8.42 % DW.
Regarding `CCCC(=O)[O-].[Na+]` [Sodium butyrate], the “amount of corosolic acid increased by” value in series [1] (1 mM sodium butylate, versus control) was 100%. In series [1] (setting [8]), the “Cell Dry Weight” value was 24.54 g/L, the “Productivity of Corosolic acid” value worked out at 2081.13 mg/L and the “Productivity of Corosolic acid (% DW)” value is recorded as 8.48 % DW.
corosolic acid: the “activity on absorption of glucose into cells” value in series [2] is “promoting a rapid absorption of glucose into cells”. The “effect on blood-sugar levels” value in series [3] (clinical demonstration, Journal of Ethnopharmacology 87: 115 117, 2003) is listed as “rawer blood-sugar levels”. In addition, in series [3] (in vivo), the side effects result is given as “without any side effects”.
